Source: PMC2967836, “Immobilization and Characterization of a Recombinant Thermostable Lipase (Pf2001) from Pyrococcus furiosus on Supports with Different Degrees of Hydrophobicity” (Enzyme Research, 2010)

Target: T1, Pf2001Δ60 (recombinant thermostable lipase Pf2001) (Pyrococcus furiosus, UniProt Q8TZJ1)
T1 construct: expressed in E. coli BL21 (DE3) pLysS; crude extract supernatant
Experiment: fluorescence release of 4-methylumbelliferone (ex […] nm, em […] nm)
Format: biochemical
Conditions: crude extract of E. coli expressing the enzyme; pH 7.0, 50 mM sodium phosphate, 0.1% gum arabic, 70 °C; soluble enzyme (also measured immobilised)

T1 sequence (Q8TZJ1 entry or part of it, stated change not applied): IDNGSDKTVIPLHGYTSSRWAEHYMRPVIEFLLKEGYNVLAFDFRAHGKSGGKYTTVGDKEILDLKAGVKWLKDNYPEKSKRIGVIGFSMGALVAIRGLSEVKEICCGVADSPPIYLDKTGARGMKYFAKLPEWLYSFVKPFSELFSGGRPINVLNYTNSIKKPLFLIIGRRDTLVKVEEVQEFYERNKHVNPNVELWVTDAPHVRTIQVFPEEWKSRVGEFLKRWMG

## CCCCCCC(=O)Oc1ccc2c(C)cc(=O)oc2c1 [4-Methylumbelliferyl-heptanoate]
  fluorescence release of 4-methylumbelliferone (ex 323 nm, em 448 nm): Enzyme activity was measured according to the method described by Prim et al.
